Experimental data taken from patent US20250197865A1, “PHARMACEUTICAL COMPOSITION FOR TREATMENT OR PREVENTION OF FIBROTIC DISEASE” (KYUSHU UNIVERSITY, NATIONAL UNIVERSITY CORPORATION, priority 2022, published 2025).

Columns and labels:
P4HA3 mRNA = assay: siRNA treatment of myofibroblasts from carbon tetrachloride-induced fibrotic liver, P4HA3 mRNA by real-time RT-PCR; type: cell-based, mouse; details: myofibroblasts from transiently fibrotic liver; siRNA 3.125 nM; versus si Ctrl; FIG. 9
Procedure: (§1) The mRNA expression levels of P4HA3 etc. in the examples of the present specification were quantified as follows. The concentration of purified RNA was determined using a microspectrophotometer DS-11 (DeNovix), and reverse transcription to cDNA was performed using a High Capacity cDNA Reverse Transcription Kit (Applied Biosystems). Quantification of mRNA was performed according to the protocol of Luna Universal qPCR Master Mix (New England BioLabs), with DNA polymerase activation at 95° C. for 60 seconds, followed by 45 cycles of cDNA denaturation at 95° C. for 15 seconds and extension at 60° C. for 30 seconds. Analysis was performed by the AACt method using GAPDH as an internal standard. Mouse Cyp7al probe was purchased from Applied Biosystems. Primers and probes for mouse α-smooth muscle actin (α-SMA), CD68, 1α1 collagen (Col1α1), 1α2 collagen (Col1α2), 1α3 collagen (Col1α3), 6α1 collagen (Col6α1), 8α1 collagen (Co81α1), GAPDH (glyceraldehyde-3-phosphate dehydrogenase), heat shock protein 47 (Hsp47), prolyl 4-hydroxylase alphal subunit (P4HA1), prolyl 4-hydroxylase alpha2 subunit (P4HA2), and prolyl 4-hydroxylase alpha3 subunit (P4HA3) were purchased from Sigma-Aldrich.
As in Example 3, the effect of suppressing P4HA3 mRNA expression on the mRNA expression of other fibrosis-related factors was examined in cultured myofibroblasts isolated from the liver 4 weeks after the start of carbon tetrachloride administration. The liver was removed from a mouse model of carbon tetrachloride (CCl4)-induced fibrotic livers and divided into small pieces. After that, the liver pieces were washed with washing buffer [25 mM HEPES/[…]/HBSS(-)], and the cell solution containing myofibroblasts was collected by shaking the liver pieces three times for 30 min at 37° C. in . . . digestion buffer [0.1% Collagenase A/15 mM HEPES/HBSS(-)]. After that, blood cell components were removed with Red Blood Cell Lysis Buffer, and the cells were suspended in 10% FBS/1% Penicillin-Streptomycin/DMEM, and then seeded on a culture plate. After 6 hr, the medium was replaced to remove non-adherent cells and debris. After that, the cells were cultured overnight in a CO2 incubator, and non-adherent cells were again removed by washing with PBS, and adherent cells were collected using Accutase. After 20 min of reaction with CD45 antibody labeled with magnetic beads, CD45-positive blood cells were removed by MACS (magnetic cell sorting) using an LS column, and CD45-negative cells were collected as myofibroblasts. After that, the purity of the isolated myofibroblasts was measured using FACS verse, and almost all of the CD45-negative cells after MACS were positive for α-SMA, a myofibroblast marker, and almost no contamination with blood cells was observed. […]

[1] = tested on: mRNA expression of fibrosis-related factors (collagens, elastin) in myofibroblasts; assay: siRNA treatment of myofibroblasts from carbon tetrachloride-induced fibrotic liver, fibrosis-related factor mRNA by real-time RT-PCR; type: cell-based, mouse; details: myofibroblasts from transiently fibrotic liver, FIG. 9
Procedure: as §1
As in Example 3, the effect of suppressing P4HA3 mRNA expression on the mRNA expression of other fibrosis-related factors was examined in cultured myofibroblasts isolated from the liver 4 weeks after the start of carbon tetrachloride administration. The liver was removed from a mouse model of carbon tetrachloride (CCl4)-induced fibrotic livers and divided into small pieces. After that, the liver pieces were washed with washing buffer [25 mM HEPES/[…]/HBSS(-)], and the cell solution containing myofibroblasts was collected by shaking the liver pieces three times for 30 min at 37° C. in . . . digestion buffer [0.1% Collagenase A/15 mM HEPES/HBSS(-)]. After that, blood cell components were removed with Red Blood Cell Lysis Buffer, and the cells were suspended in 10% FBS/1% Penicillin-Streptomycin/DMEM, and then seeded on a culture plate. After 6 hr, the medium was replaced to remove non-adherent cells and debris. After that, the cells were cultured overnight in a CO2 incubator, and non-adherent cells were again removed by washing with PBS, and adherent cells were collected using Accutase. After 20 min of reaction with CD45 antibody labeled with magnetic beads, CD45-positive blood cells were removed by MACS (magnetic cell sorting) using an LS column, and CD45-negative cells were collected as myofibroblasts. After that, the purity of the isolated myofibroblasts was measured using FACS verse, and almost all of the CD45-negative cells after MACS were positive for α-SMA, a myofibroblast marker, and almost no contamination with blood cells was observed. Si P4HA3 #1 and si P4HA3 #2, ThermoFisher Scientific catalog numbers 4390771 and 4390771 (Assay ID: s115723 and s115721), were added to the myofibroblast culture at a final concentration of 3.125 nM using Lipofectamine RNAiMAX (Invitrogen). In experiments in which si P4HA3 #2 was not used, such as in Example 3, si P4HA3 #1 was used as “si P4HA3”. For siRNA control experiments, Silencer Select Negative Control no. 1 siRNA (ThermoFisher Scientific, catalog number: 4390843) was used as si Ctrl. The nucleotide sequences of the sense and antisense strands of si P4HA3 #1 are listed in the sequence listing attached hereto as SEQ ID NOs: 1 and 2, respectively. The nucleotide sequences of the sense and antisense strands of si P4HA3 #2 are listed in the sequence listing attached hereto as SEQ ID NOs: 3 and 4, respectively.
Si Hsp47 and si P4HA3 #1 from Example 7 were used as knockdown reagents for Hsp47 and P4HA3, respectively. For si Hsp47, ThermoFisher Scientific catalog number 4390771 (Assay ID: s232335) was used. Separation of cell type fractions from livers collected 4 weeks after the start of carbon tetrachloride administration was performed in the same manner as in Example 6. […]

[2] = tested on: P4HA3 and 1α1 collagen (Col1α1) mRNA expression in LX-2 cells; assay: TGFβ treatment of cultured LX-2 hepatic stellate cell line, mRNA by real-time RT-PCR; type: cell-based; details: TGFβ 5 ng/mL for 12 hr, FIG. 26a
Description: Hepatic stellate cells, which are involved in liver fibrosis, are known to be activated by TGFβ (Fabregat, I. et al., FEBS J., 283:2219-2232 (2016)). Therefore, the effects of TGFβ and its specific inhibitor SIS3, as well as an inhibitor of SMAD3 involved in signal transduction of the TGFβ pathway (si SMAD3), on the mRNA expression of fibrosis-related factors in […] were examined. SIS3 (CAS number: 1009104-85-1) was used under catalog number 15945 from Cayman Chemical Company. SIS3 was added to the culture medium at a final concentration of 3 μM and administered. Si SMAD3 was used as a knockdown reagent for SMAD3. si SMAD3 was used under catalog number 4390771 (Assay ID: s69495) from ThermoFisher Scientific. si SMAD3 was administered to cultured cells in the same manner as in Examples 3, 7, and 13. LX-2, a cultured hepatic stellate cell line, was cultured in DMEM supplemented with 2% FBS.
First, the effect of TGFβ on the mRNA expression of P4HA3 or 1α1 collagen (Col1α1) in the cultured LX-2 cells was examined. FIG. 26a is a bar graph showing the mRNA expression level of P4HA3 or 1α1 collagen (Col1α1) in LX-2 cells treated with DMSO or TGFβ (5 ng/ML) for 12 hr. […] The number of samples for each group was 3. […] Error bars indicate standard deviation.

| Substance | mRNA expression of P4HA3 (P4HA3 mRNA) | difference in mRNA expression inhibitory effect between si P4HA3 #1 and si P4HA3 #2 for 3α1 collagen and elastin [1] | mRNA expression of 1α1 collagen ([1]; siRNA 3.125 nM, versus si Ctrl) | mRNA expression of other fibrosis-related factors ([1]; siRNA 3.125 nM, versus si Ctrl) | mRNA expression of 1α1 collagen (Col1α1) [2] | mRNA expression of P4HA3 [2] |
| --- | --- | --- | --- | --- | --- | --- |
| si P4HA3 #2: siRNA #2 against mouse P4HA3, sense/antisense SEQ ID NOs: 3 and 4; ThermoFisher Scientific catalog 4390771, Assay ID s115721 (sense GCTCATAGCTCTCTACCATTT; antisense ATGGTAGAGAGCTATGAGCGG; listed as DNA, chemistry not given here) | inhibited | no significant difference | inhibited | inhibited |  |  |
| TGFβ |  |  |  |  | enhanced | enhanced |
